Data as given in patent US20130101615A1, “METHODS FOR PREVENTING OR TREATING A DISEASE OR CONDITION ASSOCIATED WITH MYCOBACTERIUM AVIUM SUBSPECIES PARATUBERCULOSIS” (priority 2005, published 2013).
“Also recorded” adds a separate entry of the source. Where two headings read alike, the source gives them in different places.

Tests used:
[1] = tested on: MAP ATCC 19698 (bovine); format: cell-based, Mycobacterium avium subspecies paratuberculosis; conditions: for %-ΔcGI: Example 5; for % ΔcGI: Bovine MAP 19698, vs 3.2% DMSO control
[2] = tested on: MAP Dominic (ATCC 43545), isolated from human with Crohn's disease; format: cell-based, Mycobacterium avium subspecies paratuberculosis; conditions: for %-ΔcGI: Example 5; for %−ΔcGI (percent decrease in cumulative GI): MAP Dominic; for % ΔcGI: vs 3.2% DMSO control
[3] = tested on: M. avium ATCC 25291; format: cell-based, M. avium subspecies avium; conditions: for %-ΔcGI / effect on growth, in words: M. avium ATCC 25291; for %-ΔcGI: Example 5; for % ΔcGI: M. avium 25291, vs 3.2% DMSO control
[4] = tested on: M. avium 101; format: cell-based, M. avium subspecies avium; conditions: for %-ΔcGI: Example 5; for % ΔcGI: vs 3.2% DMSO control
[5] = tested on: MAP; assay: Growth inhibition of MAP (strain not stated or MAP strains in general); conditions: for %−ΔcGI (percent decrease in cumulative GI): Example 3, strain not stated
[6] = tested on: MAP UCF 4, isolated from human with Crohn's disease; assay: Radiometric BACTEC growth inhibition, MAP UCF4; format: cell-based, Mycobacterium avium subspecies paratuberculosis; conditions: for % ΔcGI: Human MAP UCF4, vs 3.2% DMSO control
[7] = tested on: MAP 303 (ruminant with Johne's disease); assay: Radiometric BACTEC growth inhibition, MAP 303; format: cell-based, Mycobacterium avium subspecies paratuberculosis; conditions: Bovine MAP 303, vs 3.2% DMSO control
[8] = 1 μg/ml, Human MAP Dominic Expt. 1
[9] = 1 μg/ml, Human MAP Dominic Expt. 2
[10] = 4 μg/ml, Human MAP Dominic Expt. 1
[11] = 4 μg/ml, Human MAP Dominic Expt. 2
[12] = 16 μg/ml, Human MAP Dominic Expt. 1
[13] = 16 μg/ml, Human MAP Dominic Expt. 2
[14] = 64 μg/ml, Human MAP Dominic Expt. 1
[15] = 64 μg/ml, Human MAP Dominic Expt. 2

O=C1CCC(N2C(=O)c3ccccc3C2=O)C(=O)N1 (racemic) [Thalidomide (±), thalidomide]
%-ΔcGI ([1]; 1 μg/ml, MAP ATCC 19698): 4%
%-ΔcGI ([1]; 4 μg/ml, MAP ATCC 19698): 8%
%-ΔcGI ([1]; 16 μg/ml, MAP ATCC 19698): −7%
%−ΔcGI (percent decrease in cumulative GI) ([1]; 64 μg/ml, MAP ATCC 19698): 26%
%-ΔcGI ([1]; 64 μg/ml, MAP ATCC 19698): −26%
%-ΔcGI ([2]; 1 μg/ml, MAP Dominic Expt A): −2%
%-ΔcGI ([2]; 1 μg/ml, MAP Dominic Expt B): 0%
%-ΔcGI ([2]; 4 μg/ml, MAP Dominic Expt A): −4%
%-ΔcGI ([2]; 4 μg/ml, MAP Dominic Expt B): −2%
%-ΔcGI ([2]; 16 μg/ml, MAP Dominic Expt A): −9%
%-ΔcGI ([2]; 16 μg/ml, MAP Dominic Expt B): −5%
%−ΔcGI (percent decrease in cumulative GI) ([2]; 64 μg/ml): 31%
%-ΔcGI ([2]; 64 μg/ml, MAP Dominic Expt A): −31%
%-ΔcGI ([2]; 64 μg/ml, MAP Dominic Expt B): −13%
%-ΔcGI ([3]; 1 μg/ml): 34%
%-ΔcGI ([3]; 4 μg/ml): 37%
%-ΔcGI ([3]; 16 μg/ml): 28%
%-ΔcGI ([3]; 64 μg/ml): 25%
effect on growth, in words [3]: no dose-dependent inhibition
effect on growth, in words [4]: no dose-dependent inhibition
%-ΔcGI ([4]; 1 μg/ml): −20%
%-ΔcGI ([4]; 4 μg/ml): −5%
%-ΔcGI ([4]; 16 μg/ml): 6%
%-ΔcGI ([4]; 64 μg/ml): −14%

CC1(C)S[C@@H]2[C@H](NC(=O)[C@H](N)c3ccccc3)C(=O)N2[C@H]1C(=O)O [ampicillin]
%−ΔcGI (percent decrease in cumulative GI) ([5]; 32 μg/ml): 21%

CN(Cc1cnc2nc(N)nc(N)c2n1)c1ccc(C(=O)N[C@@H](CCC(=O)O)C(=O)O)cc1 [methotrexate]
%−ΔcGI (percent decrease in cumulative GI) ([5]; 2 μg/ml): 40%
%−ΔcGI (percent decrease in cumulative GI) ([5]; 4 μg/ml): ≥ 75%
effect on growth of MAP, in words ([5]; MAP strains in general): inhibit the growth kinetics of MAP

CC(C)/N=c1\cc2n(-c3ccc(Cl)cc3)c3ccccc3nc-2cc1Nc1ccc(Cl)cc1 [Clofazimine, clofazimine]
% ΔcGI ([6]; 1 μg/ml): −99%
% ΔcGI ([6]; 4 μg/ml): −99%
% ΔcGI ([6]; 16 μg/ml): −99%
% ΔcGI ([6]; 64 μg/ml): −99%
% ΔcGI ([1]; 1 μg/ml): −99%
% ΔcGI ([1]; 4 μg/ml): −99%
% ΔcGI ([1]; 16 μg/ml): −99%
% ΔcGI ([1]; 64 μg/ml): −99%
% ΔcGI ([7]; 1 μg/ml): −99%
% ΔcGI ([7]; 4 μg/ml): −99%
% ΔcGI ([7]; 16 μg/ml): −99%
% ΔcGI ([7]; 64 μg/ml): −99%
% ΔcGI [2, 8]: −99%
% ΔcGI [2, 9]: −99%
% ΔcGI [2, 10]: −99%
% ΔcGI [2, 11]: −99%
% ΔcGI [2, 12]: −99%
% ΔcGI [2, 13]: −99%
% ΔcGI [2, 14]: −99%
% ΔcGI [2, 15]: −99%
%−ΔcGI (percent decrease in cumulative GI) ([2]; at 0.5 (concentration unit not given)): 97%
% ΔcGI ([3]; 1 μg/ml): −98%
% ΔcGI ([3]; 4 μg/ml): −98%
% ΔcGI ([3]; 16 μg/ml): −98%
% ΔcGI ([3]; 64 μg/ml): −99%
% ΔcGI ([4]; 1 μg/ml): −98%
% ΔcGI ([4]; 4 μg/ml): −98%
% ΔcGI ([4]; 16 μg/ml): −98%
% ΔcGI ([4]; 64 μg/ml): −99%

CC[C@H]1OC(=O)[C@H](C)[C@@H](O[C@H]2C[C@@](C)(OC)[C@@H](O)[C@H](C)O2)[C@H](C)[C@@H](O[C@@H]2O[C@H](C)C[C@H](N(C)C)[C@H]2O)[C@](C)(OC)C[C@@H](C)C(=O)[C@H](C)[C@@H](O)[C@]1(C)O [clarithromycin]
%−ΔcGI (percent decrease in cumulative GI) ([1]; 4 μg/ml, MAP 19698, Example 3): ~80%
effect on growth, in words [3]: no evidence of growth
%−ΔcGI (percent decrease in cumulative GI) ([5]; 0.5 μg/ml): ≥ 86%

O=C(O)c1cc(/N=N/c2ccc(S(=O)(=O)Nc3ccccn3)cc2)ccc1O [sulfasalazine]
effect on proliferation / cumulative growth index, in words ([1]; MAP ATCC 19698): little effect on the cumulative growth index of MAP

CO[C@H]1C[C@@H]2CC[C@@H](C)[C@@](O)(O2)C(=O)C(=O)N2CCCC[C@H]2C(=O)O[C@H]([C@H](C)C[C@@H]2CC[C@@H](O)[C@H](OC)C2)CC(=O)[C@H](C)/C=C(\C)[C@@H](O)[C@@H](OC)C(=O)[C@H](C)C[C@H](C)/C=C/C=C/C=C/1C [Rapamycin, sirolimus (rapamycin)]
% ΔcGI ([6]; 1 μg/ml): −14%
% ΔcGI ([6]; 4 μg/ml): −9%
% ΔcGI ([6]; 16 μg/ml): −29%
% ΔcGI ([6]; 64 μg/ml): −76%
%−ΔcGI (percent decrease in cumulative GI) ([6]; 64 μg/ml, MAP UCF 4): 76%
inhibition, in words ([6]; lower concentrations (1 and 16 μg/ml), MAP UCF 4): no inhibition
% ΔcGI ([1]; 1 μg/ml): −3%
% ΔcGI ([1]; 4 μg/ml): −1%
% ΔcGI ([1]; 16 μg/ml): −18%
% ΔcGI ([1]; 64 μg/ml): −43%
% ΔcGI ([7]; 1 μg/ml): 4%
% ΔcGI ([7]; 4 μg/ml): −11%
% ΔcGI ([7]; 16 μg/ml): −15%
% ΔcGI ([7]; 64 μg/ml): −39%
% ΔcGI [2, 8]: 21%
% ΔcGI [2, 9]: 0%
% ΔcGI [2, 10]: 13%
% ΔcGI [2, 11]: −7%
% ΔcGI [2, 12]: −10%
% ΔcGI [2, 13]: −9%
% ΔcGI [2, 14]: −58%
% ΔcGI [2, 15]: −44%
% ΔcGI ([3]; 1 μg/ml): 10%
% ΔcGI ([3]; 4 μg/ml): 7%
% ΔcGI ([3]; 16 μg/ml): 11%
% ΔcGI ([3]; 64 μg/ml): −18%
effect on growth, in words [3]: no inhibition; also recorded: no effect
% ΔcGI ([4]; 1 μg/ml): −19%
% ΔcGI ([4]; 4 μg/ml): −7%
% ΔcGI ([4]; 16 μg/ml): −28%
% ΔcGI ([4]; 64 μg/ml): −39%
